In one data set the test system is Cryptococcus spores. In words: Quantitative germination assay (QGA), automated microscopy of spore germination. Type of data set: cell-based, Cryptococcus neoformans serotype D (deneoformans). The settings on record: for germination inhibition phenotype (chemical phenotype) in QGA: at phenotypic concentration; for inhibition at 5 µM: Cryptococcus. The procedure:
In this automated microscopy-based assay, germination progression of spores is monitored as a function of changes in cell morphology over time (spores are small and oval; yeast are large and circular). Individual spores in a population (∼1 × 10^4 per sample) are measured to determine size (area) and shape (aspect ratio) from the onset of germination, and the data are collected for each cell over the time of germination (Fig. 1A).
Germination assays were modified from those described by Barkal et al. to introduce automation, increase throughput, and refine assay consistency ([12]). Briefly, 384-well plates (Thermo Scientific 142762) were loaded with 10^5 spores per well, and at 0 h, synthetic medium plus 2% dextrose (SD medium) containing the compounds of interest was added to the sample (final volume of 40 μl). All compounds were tested initially at 80 μM; however, concentrations were changed on a case-by-case basis for subsequent experiments. All assays and controls were performed with a final concentration of 0.8% DMSO (the compound solvent) unless specified otherwise. Spores were germinated at 30°C in a humidified chamber, and the same ∼5 × 10^3 cells were monitored every 2 h for 16 h. Imaging was performed on a Ti2 Nikon microscope, and each condition was visualized in a minimum of two individual wells with three fields of view acquired from each well. All images were analyzed as described previously based on cell shape and size using ImageJ. The population ratios of spores, intermediates, and yeast were determined. Error bars in plots are based on the variation among all fields of view acquired. Level of germination was determined by quantifying the decrease in the proportion of spores in a population, and rates were quantified by determining the change in this proportion over time. For all two-dimensional histograms, the x axis represents area from 0 μm^2 to 25 μm^2, and the y axis represents the aspect ratio from 0.4 to 1.
Cycloheximide (0.078 μM to 80 μM) (Dot Scientific, Inc. DSC81040-1), G418 (1.6 mM) (Fisher Scientific AAJ6267106), and puromycin (20 mM) (Dot Scientific, Inc. DSP33020-0.025) were tested with no DMSO (all were water soluble), whereas anisomycin (62.5 μM) (Sigma-Aldrich A9789-5MG) was tested in 2.5% DMSO.
Furcarbanil (80 μM) (Sigma-Aldrich T313122), rotenone (10 μM) (Fisher Scientific 501687383), and antimycin A (2.5 μM) (Santa Cruz Biotechnology, Inc. sc-202467A) were all tested in 0.8% DMSO, and TTFA (200 μM) (Sigma-Aldrich 88300-5G) was tested in 3% DMSO.

Data set [1] deals with normal human dermal fibroblasts (NHDF) cells. Description: Fibroblast cytotoxicity (CellTiter-Glo). The data set is classed as cell-based. The following applies: at concentrations as high as 80 μM; dose-response 0.5 to 80 μM. In outline:
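Normal human dermal fibroblasts, 1 × 10^3 per well, exposed to compounds at 10 μM for 72 h at 37°C. Viability read as ATP-dependent CellTiter-Glo luminescence. Dose-response runs titrated compounds from 80 μM to 0.5 μM in duplicate.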

Data set [2] deals with Cryptococcus yeast (JEC21). Description: Oxygen consumption rate experiments (Seahorse XFe96). Type of data set: cell-based, Cryptococcus neoformans serotype D (deneoformans). The following applies: 10 μM inhibitor injected after 20 mM glucose. The procedure: Oxygen consumption experiments were performed on a Seahorse Biosciences XFe96 extracellular flux analyzer, and the assays were modified from those described by Lev et al. 2020 ([28]). Briefly, cartridges were hydrated overnight in Agilent Seahorse XF calibrant. JEC21 yeast were grown overnight in YPD, washed with double-distilled water (ddH2O) and resuspended to an OD600 of 0.08 in Seahorse XF Dulbecco’s modified Eagle medium (DMEM) at pH 7.4 (Agilent 103575-100). Cells (180 μl) were loaded into each well with the exception of blank wells, which were filled with XF DMEM. Each injection solution was 10× the final volume in XF DMEM. The assay was carried out at 30°C with injections occurring every 60 min. OCR was read every 6 min during each hour interval, with 3 min of mixing and 3 min of measuring. The following final concentrations were achieved after each injection: (a) 20 mM dextrose, (b) 10 μM chosen inhibitor (furcarbanil, B2, or B5) and 1% DMSO, (c) 50 μM rotenone, 50 μM antimycin A, and 1% DMSO, and (d) 100 mM 2-deoxy-D-glucose (2-DG; Sigma-Aldrich D8375-1G). Each condition was tested in triplicates.

Where “and” joins values, the source holds several entries; their conditions need not be identical. Equal entries are not always repeated. Where two headings read alike, the source gives them in different places.

In the case of `COc1cccc2cc(-c3csc(NN=C4CCN(C)CC4)n3)c(=O)oc12` [PubChem CID 4913014], in the data set with Cryptococcus spores, the “phenotypic concentration (concentration showing the germination phenotype in QGA)” value (from here on “phenotypic concentration”) came to 20 µM and the “germination inhibition phenotype (chemical phenotype) in QGA” value was “asynchrony”.

With `CN[C@@H]1[C@@H](O)[C@@H](O[C@@H]2[C@@H](O)[C@H](O[C@H]3O[C@H]([C@@H](C)O)[C@@H](O)[C@H](O)[C@H]3N)[C@@H](N)C[C@H]2N)OC[C@]1(C)O` [Geneticin, reference compound], the “germination inhibition phenotype (chemical phenotype) in QGA” value in the data set on Cryptococcus spores was “slow-down”.

For `O=C(CCc1ccccc1Br)N1CCC(c2ccsc2)CC1` [PubChem CID 71807075], in the data set on Cryptococcus spores, the “phenotypic concentration” value turned out to be 40 µM and the “germination inhibition phenotype (chemical phenotype) in QGA” value is reported as “asynchrony”.

On to `O=C(CSCc1ccccc1)N1CCC(c2ccsc2)CC1` [PubChem CID 71786985], for which, in the data set on Cryptococcus spores, the “phenotypic concentration” value was 80 µM and the “germination inhibition phenotype (chemical phenotype) in QGA” value is given as “asynchrony”.

Regarding `Cc1nc(NC(=O)CCc2ccccc2)sc1C` [PubChem CID 733834], in the data set on Cryptococcus spores, the “phenotypic concentration” value was determined as 40 µM and the “germination inhibition phenotype (chemical phenotype) in QGA” value is listed as “morphological variability”.

As for `O=C(CCc1ccccc1Br)N1CCC(c2cccs2)CC1` [PubChem CID 71807060], in the data set with Cryptococcus spores, the “phenotypic concentration” value was 40 µM and the “germination inhibition phenotype (chemical phenotype) in QGA” value is “asynchrony”.

As to `O=C(NCc1ccnc(-c2cccs2)c1)c1nc2ccccc2s1` [PubChem CID 91630328], in the data set on Cryptococcus spores, the “phenotypic concentration” value stood at 40 µM and the “germination inhibition phenotype (chemical phenotype) in QGA” value is “asynchrony”.

Consider `NNc1nc2cc3c(cc2s1)OCCO3` [PubChem CID 2771030], for which the “germination inhibition phenotype in QGA” value is “bimodal” in the data set with Cryptococcus spores (at 2.5 µM); “combination phenotype of “bimodal” and “slow end”” in the data set with Cryptococcus spores (at higher concentrations (5 µM)). Moreover, in the data set on Cryptococcus spores (listed as G3), the “phenotypic concentration” value was 2.5 µM and 5 µM.

With `Cc1ccccc1OCCSCc1nc2ccccc2[nH]1` [PubChem CID 1589778], in the data set on Cryptococcus spores, the “phenotypic concentration” value came to 80 µM and the “germination inhibition phenotype (chemical phenotype) in QGA” value is given as “slow down”.

Regarding `Cc1ccc(-c2nnc(Cn3cnc4ccccc43)o2)cc1` [PubChem CID 16456942], in the data set on Cryptococcus spores, the “phenotypic concentration” value was found to be 5 µM and the “germination inhibition phenotype (chemical phenotype) in QGA” value is “slow down”.

For the compound `c1ccc(OCCCCSc2nc3ccccc3[nH]2)cc1` [PubChem CID 1653635], in the data set with Cryptococcus spores, the “phenotypic concentration” value was 80 µM and the “germination inhibition phenotype (chemical phenotype) in QGA” value is “slow down”.

In turn, `Cc1nc(NCc2ccccc2)c2ccsc2n1` [A5] yielded an inhibition at 5 µM in the data set on Cryptococcus spores of more than 80%. The same compound returned a cytotoxicity against fibroblasts in data set [1] of less than 20%.

With `COc1ccc(C[C@H](N)C(=O)N[C@H]2[C@@H](O)[C@H](n3cnc4c(N(C)C)ncnc43)O[C@@H]2CO)cc1` [puromycin, reference compound], in the data set with Cryptococcus spores, the “germination inhibition phenotype (chemical phenotype) in QGA” value is on record as “slow-down”.

Take `CN(C)CCN(C(=O)c1c[nH]c2ccccc12)c1nc2ccc(OC(F)(F)F)cc2s1.Cl` [PubChem CID 71782913]: in the data set on Cryptococcus spores, the “phenotypic concentration” value was determined as 20 µM and the “germination inhibition phenotype (chemical phenotype) in QGA” value is “asynchrony”.

Regarding `O=C(NC1CCCC1)c1csc(Nc2ccccc2)n1` [PubChem CID 30860168], in the data set on Cryptococcus spores, the “phenotypic concentration” value worked out at 10 µM and the “germination inhibition phenotype (chemical phenotype) in QGA” value is “asynchrony”.

With `Cc1cc(C(=O)N2CCC(Oc3ncccc3Cl)CC2)c(C)o1` [B5], in data set [2], the “effect on oxygen consumption rate (OCR)” value is on record as “small decrease in OCR that was not recovered from”.

As to `CCCCCC[C@H]1C(=O)O[C@H](C)[C@H](NC(=O)c2cccc(NC=O)c2O)C(=O)O[C@@H](C)[C@@H]1OC(=O)CC(C)C` [antimycin A, reference compound], in the data set with Cryptococcus spores, the “phenotypic concentration” value is 2.5 µM and the “germination inhibition phenotype (chemical phenotype) in QGA” value is “asynchrony”.

`Cc1cc(C)c2sc(NN)nc2c1` [PubChem CID 2049855]: the “germination inhibition phenotype (chemical phenotype) in QGA” value with Cryptococcus spores was “combination of the “morphological variability” and the “slow end” phenotypes”. The “phenotypic concentration” value with Cryptococcus spores (listed as G2) is 20 µM and 40 µM.

In the case of `CCc1ccccc1NC(=O)c1cc(C)oc1C` [B1], in the data set on Cryptococcus spores, the “phenotypic concentration” value was 80 µM.

For `COc1ccc(C[C@H]2NC[C@H](O)[C@H]2OC(C)=O)cc1` [anisomycin, reference compound], the “germination inhibition phenotype (chemical phenotype) in QGA” value with Cryptococcus spores is “slow-down”.

As to `CCCOc1ccc(CSc2nc3ccccc3[nH]2)cc1` [PubChem CID 1653621], in the data set with Cryptococcus spores, the “phenotypic concentration” value turned out to be 80 µM and the “germination inhibition phenotype (chemical phenotype) in QGA” value was “slow down”.

In the case of `Cc1ccc(OCCn2c(C)nc3ccccc32)cc1` [PubChem CID 790960], in the data set on Cryptococcus spores, the “phenotypic concentration” value came to 80 µM and the “germination inhibition phenotype (chemical phenotype) in QGA” value was “slow down”.

Take `CCn1c(CSc2ccccc2)nc2ccccc21` [PubChem CID 2992099]: in the data set on Cryptococcus spores, the “phenotypic concentration” value turned out to be 80 µM and the “germination inhibition phenotype (chemical phenotype) in QGA” value is reported as “slow down”.

As for `Cc1cc(C(=O)Nc2ccccc2)c(C)o1` [furcarbanil, reference compound], in the data set with Cryptococcus spores, the “phenotypic concentration” value came out at 80 µM and the “germination inhibition phenotype (chemical phenotype) in QGA” value is on record as “asynchrony”. Moreover, the “effect on oxygen consumption rate (OCR)” value in data set [2] was “initial substantial decrease in OCR followed by recovery”.

Consider `COc1ccc(SCCCC(=O)Nc2ncnc3sccc23)cc1` [A8], for which the “germination inhibition phenotype (chemical phenotype) in QGA” value in the data set on Cryptococcus spores is “asynchrony”.

In the case of `O=C(CCSc1ccccc1)N1CCC(c2cccs2)CC1` [PubChem CID 71786877], in the data set on Cryptococcus spores, the “phenotypic concentration” value turned out to be 80 µM and the “germination inhibition phenotype (chemical phenotype) in QGA” value is on record as “asynchrony”.

On to `O=C(Nc1nc2c(Br)cccc2s1)C1CC1` [PubChem CID 7202929], for which, in the data set with Cryptococcus spores, the “phenotypic concentration” value came to 10 µM and the “germination inhibition phenotype (chemical phenotype) in QGA” value is recorded as “asynchrony”.

Regarding `C=C(C)[C@H]1Cc2c(ccc3c2O[C@@H]2COc4cc(OC)c(OC)cc4[C@@H]2C3=O)O1` [rotenone, reference compound], in the data set with Cryptococcus spores, the “phenotypic concentration” value is 10 µM and the “germination inhibition phenotype (chemical phenotype) in QGA” value is “asynchrony”.

Turning to `Cc1cc(C(=O)N(CCc2cccs2)C2CC2)c(C)o1` [B2], the inhibition at 5 µM in the data set on Cryptococcus spores is more than 75%. In data set [1], this compound had a cytotoxicity against fibroblasts not above 25%. Moreover, in data set [2], the “effect on oxygen consumption rate (OCR)” value was “substantial decrease in OCR that was not recovered from”.

These data come from publication PMC8406298, “Discovery of Fungus-Specific Targets and Inhibitors Using Chemical Phenotyping of Pathogenic Spore Germination” (mBio, 2021).
